Results as given in US6355669B1, “Retinoic acid agonists as preventive and therapeutic agents for nephritis” (Eisai Co., Ltd., priority 1997, dated 2002).

How the values were obtained:
[1] = tested on: mouse allergic cerebrospinal meningitis; settings: Racke et al., J. Immunol., 154, 450-458, 1995; cited from earlier work
rat adjuvant arthritis = settings: Brinckerhoff et al., Science 221, 756, 1983; cited from earlier work
human B lymphocytes = settings: literature reports (Apfel 1992; Blomhoff 1992; Fahlman 1995); cited from earlier work
[2] = tested on: BALB/c mouse spleen cells; test: In vitro production of antibody (total IgG) in LPS-stimulated mouse spleen cells; format: cell-based; settings: for Total IgG: LPS 5 μg/ml, 5 days
Protocol: Spleen cells from 7-week-old female BALB/c mouse were cultured at 37° C. in the presence of 5% CO2 for 5 days along with 5 μg/ml lipopolysaccharide (LPS) in RPMI 1640 medium containing 10% fetal bovine serum. After culture, the total amount of IgG in the supernatant was quantified by specific ELISA techniques.

mouse B lymphocytes [3] = settings: literature reports (Apfel 1992; Blomhoff 1992; Fahlman 1995); cited from earlier work
[4] = tested on: anti-collagen antibody titer; settings: rat model with collagen arthritis; Kuwabara et al., FEBS Letters 1996; cited from earlier work
anti-ss DNA antibody = test: Mouse model with spontaneous onset of SLE: production of anti-ss DNA antibody; format: in vivo, female (NZB×NZW) F1 mice
Protocol: (§1) In this experiment, female (NZB×NZW) F1 mice were used. Administration of each test compound was initiated at the age of 16 weeks, and blood was collected at predetermined intervals from the orbital venous plexus of the animals under anesthesia with ether and examined for anti-DNA (single-stranded chain: ss, double stranded chain: ds) antibody titer in serum. Further, urine was collected and measured for urine protein.
(§2) The medium was administered into the control group.

[5] = tested on: albuminuria in (NZB×NZW)F1 mice; test: Mouse model with spontaneous onset of SLE: urine protein / onset of albuminuria; format: in vivo, female (NZB×NZW) F1 mice; settings: for Number of animals with Concentration of Urine Protein (mg/ml) <0.3 / Number of animals with Concentration of Urine Protein (mg/ml) >0.3 / Number of animals with Concentration of Urine Protein (mg/ml) >1 / Number of animals with Concentration of Urine Protein (mg/ml) >3 / Number of animals with Concentration of Urine Protein (mg/ml) >10: after 18 weeks of administration (34-week-old), 8 animals
Text: as §1
The test compounds A, B and D were suspended in 0.5% aqueous methyl cellulose solution and orally administered daily once into the animals for 6 days/week for 18 weeks. The medium was administered into the control group.
The effect of each compound on the onset of albuminuria after 18 weeks of administration (in 34-week-old animals) is shown in Table 2.

[6] = tested on: accelerated Masugi nephritis; test: Rat model with accelerated Masugi nephritis (proteins excreted in urine for 24 hours); format: in vivo, Sprague-Dawley strain rats; settings: dose 0.3 mg/kg, oral once every day; compared with the control group; 0.3 mg/kg
Protocol: Sprague-Dawley strain rats were immunized by subcutaneously administering rabbit γ-globulin in a dose of 4 mg/rat along with Freund's complete adjuvant into the bottoms of their both hind legs. On the 5th day after the rats were immunized, 1 ml of anti-rat glomerular basement membrane rabbit serum diluted 6- or 8-fold was administered via tail veins into the animals. On the 8th day, the rats were forced to be orally administered 8 ml sterilized water and then placed in a metabolism cage, and their urine was collected for 24 hours during which the animals were allowed neither food nor water. As the indicator of the model with accelerated Masugi nephritis, the amount of proteins excreted in urine for 24 hours was used.
as §2

anti-ds DNA antibody = test: Mouse model with spontaneous onset of SLE: production of anti-ds DNA antibody; format: in vivo, female (NZB×NZW) F1 mice
Protocol: as §1, §2

[7] = tested on: anti-rabbit γ-globulin IgG2a antibody titer; test: Rat model producing antibody (anti-rabbit γ-globulin antibody titer in serum, ELISA); format: in vivo, Sprague-Dawley strain rats; settings: dose 0.3 mg/kg oral once every day for 14 days; 14th day after immunization
Protocol: Sprague-Dawley strain rats were immunized by subcutaneously administering rabbit γ-globulin in a dose of 4 mg/rat along with Freund's complete adjuvant into the bottoms of their both hind legs. On the 14th day after the rats were immunized, blood was collected from their tail veins and examined for anti-rabbit γ-globulin antibody titer in serum by the ELISA method.
The test compounds A, B, C and D were suspended respectively in 0.5% aqueous methyl cellulose solution and orally administered once every day for 14 days from the day on which the animals were immunized with rabbit γ-globulin. The medium was administered into the control group.

mouse B lymphocytes [8] = settings: adding RARα antagonist; Apfel 1992; cited from earlier work
[9] = 0.03 mg/kg oral, after 16 weeks of administration

CC1=C(/C=C/C(C)=C/C=C/C(C)=C/C(=O)Nc2ccc(O)cc2)C(C)(C)CCC1
neural symptoms of mouse allergic cerebrospinal meningitis [1]: ameliorated

CC1=C(/C=C/C(C)=C/C=C/C(C)=C\C(=O)O)C(C)(C)CCC1 [13-cis-retinoic acid]
neural symptoms of mouse allergic cerebrospinal meningitis [1]: ameliorated
secondary inflammations in rat adjuvant arthritis (rat adjuvant arthritis): significantly suppressed

CC1=C(/C=C/C(C)=C/C=C/C(C)=C/C(=O)O)C(C)(C)CCC1 [All-trans retinoic acid, all-trans-retinoic acid]
polyclonal division of human B lymphocytes (human B lymphocytes): inhibits
in vitro production of antibody in mice (in words) ([2]; 0.1 and 1 nM all-trans-retinoic acid): inhibited
Total IgG ([2]; all-trans retinoic acid 0.1 nM with Ro-41-5253 20 nM): 9.8 ng/mL
Total IgG ([2]; all-trans retinoic acid 0.1 nM with Ro-41-5253 200 nM): 26.4 ng/mL
Total IgG ([2]; all-trans retinoic acid 0.1 nM with Ro-41-5253 2000 nM): 23.4 ng/mL
Total IgG ([2]; all-trans retinoic acid 0.1 nM, Ro-41-5253 0 nM): 11.3 ng/mL
Total IgG ([2]; all-trans retinoic acid 1 nM with Ro-41-5253 20 nM): 6.4 ng/mL
Total IgG ([2]; all-trans retinoic acid 1 nM with Ro-41-5253 200 nM): 7.2 ng/mL
Total IgG ([2]; all-trans retinoic acid 1 nM with Ro-41-5253 2000 nM): 21.5 ng/mL
Total IgG ([2]; all-trans retinoic acid 1 nM, Ro-41-5253 0 nM): 7.3 ng/mL
polyclonal division of mouse B lymphocytes (mouse B lymphocytes [3]): inhibits

CC1(C)CCC(C)(C)c2cc(NC(=O)c3ccc(C(=O)O)cc3)ccc21 [Am80]
production of anti-collagen antibody titer in blood [4]: strongly inhibited

Cc1ccc(C)c2oc(-c3ccc(-c4ccc(C(=O)O)cc4)[nH]3)cc12 [Compound A, 4-{2-[5-(4,7-dimethylbenzofuran-2-yl)pyrrolyl]}benzoic acid]
inhibition of production of anti-ss DNA antibody (in words) (anti-ss DNA antibody; [9]): significant inhibition
onset of albuminuria (in words) ([5]; dose 0.03 mg/kg, after 18 weeks of administration): inhibited
Number of animals with Concentration of Urine Protein (mg/ml) <0.3 ([5]; dose 0.03 mg/kg): 6
Number of animals with Concentration of Urine Protein (mg/ml) >0.3 ([5]; dose 0.03 mg/kg): 0
Number of animals with Concentration of Urine Protein (mg/ml) >1 ([5]; dose 0.03 mg/kg): 1
Number of animals with Concentration of Urine Protein (mg/ml) >3 ([5]; dose 0.03 mg/kg): 1
Number of animals with Concentration of Urine Protein (mg/ml) >10 ([5]; dose 0.03 mg/kg): 0
Degree of Inhibition of Albuminuria (%) [6]: 69.2%
inhibition of production of anti-ds DNA antibody (in words) (anti-ds DNA antibody; [9]): significant inhibition
effect on anti-rabbit γ-globulin IgG2a antibody titer [7]: showed a tendency to inhibit

CCCCCCCOc1cc2c(cc1/C(C)=C/c1ccc(C(=O)O)cc1)C(C)(C)CCS2(=O)=O [Ro-41-5253]
Total IgG ([2]; Ro-41-5253 20 nM, all-trans retinoic acid 0 nM): 29.2 ng/mL
Total IgG ([2]; Ro-41-5253 200 nM, all-trans retinoic acid 0 nM): 30.2 ng/mL
Total IgG ([2]; Ro-41-5253 2000 nM, all-trans retinoic acid 0 nM): 18.0 ng/mL
recovery of the inhibitory action of all-trans-retinoic acid on antibody production (in words) ([2]; adding 200 nM and 2000 nM Ro-41-5253): completely recovered
recovery of the inhibitory action of retinoic acid on differentiation of mouse B lymphocytes (mouse B lymphocytes [8]): recovered almost perfectly

cyclosporin A [reference compound]
inhibition of production of anti-ss DNA antibody (anti-ss DNA antibody; 50 mg/kg, examined in the same manner, significant): about 85%
Number of animals with Concentration of Urine Protein (mg/ml) <0.3 ([5]; dose 50 mg/kg): 5
Number of animals with Concentration of Urine Protein (mg/ml) >0.3 ([5]; dose 50 mg/kg): 1
Number of animals with Concentration of Urine Protein (mg/ml) >1 ([5]; dose 50 mg/kg): 2
Number of animals with Concentration of Urine Protein (mg/ml) >3 ([5]; dose 50 mg/kg): 0
Number of animals with Concentration of Urine Protein (mg/ml) >10 ([5]; dose 50 mg/kg): 0
onset of albuminuria (in words) ([5]; dose 50 mg/kg, not statistically significant): showed inhibition
inhibition of production of anti-ds DNA antibody (in words) (anti-ds DNA antibody; 50 mg/kg, examined in the same manner): did not inhibit
